Reference: paper PMC10138721, “Investigation of the Compatibility between Warheads and Peptidomimetic Sequences of Protease Inhibitors—A Comprehensive Reactivity and Selectivity Study” (International Journal of Molecular Sciences, 2023)
“Also recorded” adds a separate entry of the source. Like-named read-outs stand apart in the source and are kept apart here.

What was measured:
proteasome β5-subunit = biological target: T1, proteasome β5-subunit (Homo sapiens, UniProt P20618+P28074); assay: Fluorometric inhibition assay, proteasome β5-subunit; assay type: biochemical
T1 construct: purchased Enzo Life sciences

human cathepsin S (CatS) = biological target: T2, human cathepsin S (CatS) (Homo sapiens, UniProt P25774); assay: Fluorometric inhibition assay, cathepsin S; assay type: biochemical
T2 construct: purchased Sigma Aldrich

rhodesain = rhodesain (Trypanosoma brucei rhodesiense, UniProt Q95PM0); assay: Fluorometric inhibition assay, rhodesain; assay type: biochemical; conditions: for Ki: Rhodesain
[1] = Reactivity test of warhead probes with PhEtSH without base (NMR/LC-MS); assay type: physicochemical; conditions: non-basic conditions; for conversion with PhEtSH: DMSO-d6, after 240 min; for reactivity with PhEtSH (protonated thiol), in words: DMSO-d6, up to 240 min
Source text: (§1) To investigate the reactivity between the different warheads towards the three classes of proteases (serine, threonine and cysteine proteases), their behavior in model systems under the same reaction conditions (solvent, nucleophile and base) using either NMR or LC-MS analysis was investigated. We used reactivity probes with a Boc-L-Leu-(warhead) sequence. Leucin was chosen as a P1 amino acid to minimize influences of the side chain and due to synthetic accessibility. 2-Phenylethanethiol was used as a model nucleophile to mimic the thiol moiety of cysteine proteases, and sodium ethoxide was used as a serine/threonine replacement. DMSO-d6 was used as solvent. Under these conditions, the nucleophile is deprotonated, simulating the activated serine or threonine in the catalytic triad of serine and threonine proteases, while ethanol as protonated alcohol species turned out to be unreactive in preliminary test reactions. The reactivity tests using 2-phenylethanthiol were carried out in the presence and absence of triethylamine as a base. This allowed for a reactivity comparison of the warheads towards protonated and deprotonated nucleophilic thiol species. Generating a deprotonated thiol species in the presence of triethylamine simulates the deprotonated cysteine in the catalytic dyad of cysteine proteases. Scheme 8 illustrates the reaction of the reactivity assay with both model nucleophiles and the vinyl sulfone moiety 109 as an example.
(§2) The reactivity tests of all Michael acceptors, 109, 110, 111 and 112, the α-ketobenzothiazole 115 and nitrile 117 were investigated using an NMR-based analysis method, while the β-lactam 108 reactivity was investigated via LC-MS, due to its lack of proton signals, which could be used for evaluation of the reactivity in the ^1H-NMR studies, and the irreversible reaction mechanism, which allowed the LC-MS analysis. […] Formation of the expected adducts with the nitrile 117 (PhEtSH/PhEtS^–/EtONa), the α-ketobenzothiazole 115 (PhEtSH/PhEtS^–) and the nitroalkene 111 (EtONa) could not be observed. This may have been due to the covalent reversible reaction mechanism of the nitrile and α-ketobenzothiazole and the overall difficult ionization of the specific compounds by an electron spray ionization mass spectrometer.
(§3) Method A (NMR): ^1H-NMR spectra were recorded for the respective warhead and nucleophile mixture, before the addition of the nucleophile (0 min) and after 5, 30, 60, 120 and 240 min reaction time. For quantification, the double bond-signals (doublet/doublet of doublets, around 7.4–6.7 ppm) of the Michael acceptors were integrated relative to 1,3-dioxolane as an internal standard. The acetal CH2 signal of the internal standard at 5.3 ppm was used as a reference.
(§4) The α-ketobenzothiazole 115 and nitrile 117 were similarly analyzed by ^13C-NMR. Therefore, the corresponding ^13C-leucin derivates were synthesized (Scheme 7). Quantifications of the reactions were carried out by using the integral of the carbonyl carbon atom signal at 195 ppm for the α-ketobenzothiazole and 120 ppm for the nitrile moiety. The reference signal of DMSO-d6 was set to 39.52 ppm.
(§5) Method B (LC-MS): The reactivity of the β-lactam test compound 108 with the nucleophiles was investigated using an LC-MS-based method. To quantify the conversion, the AUCs were determined at 254 nm. In Figure 3, the UV spectra of the test reaction of the β-lactam 108 with EtONa are shown exemplarily.
(§6) The β-lactam 108 (0.07 mmol, 1eq) was solved in DMSO-d6 (0.5 mL). The reaction was measured in time intervals before (0 min), 5, 30, 60, 120 and 240 mins after the addition of the corresponding nucleophile (PhEtSH/EtONa, 2 eq) in presence of Et3N (2 eq) or not. In case of PhEtSH as the nucleophile the reaction got quenched by pouring 10 µL of the reaction mixture into a solution of 25 mM TRIS (pH 7.00) and 27 mM maleimide in a 1:1 mixture of acetonitrile/H2O (990 µL). For the reaction with EtONa as the nucleophile, the reaction solution […]

[2] = Reactivity test of warhead probes with PhEtSH + Et3N (NMR/LC-MS); assay type: physicochemical; conditions: for reactivity with PhEtSH + Et3N (deprotonated thiol), in words: DMSO-d6, up to 240 min
Source text: as §1, §2, §3, §4, §5, §6

[3] = Reactivity test of warhead probes with EtONa (NMR/LC-MS); assay type: physicochemical; conditions: for reactivity with EtONa, in words: DMSO-d6, up to 240 min; for time to full conversion with EtONa: DMSO-d6
Source text: as §1, §2, §3, §4, §5, §6

[4] = biological target: T3, urokinase-type plasminogen activator (uPA) (Homo sapiens, UniProt P00749); assay: Fluorometric inhibition assay, uPA; assay type: biochemical
T3 construct: purchased Sigma Aldrich

[5] = biological target: SARS-CoV-2 main protease (M^pro) (Severe acute respiratory syndrome coronavirus 2, UniProt P0DTD1); assay: Fluorometric (FRET) inhibition assay, SARS-CoV-2 M^pro; assay type: biochemical; conditions: initial screen at 20 µM, cut-off 80% inhibition
[6] = initial screen at 20 µM, cut-off 80% inhibition

rhodesain, sequence (Q95PM0 entry or part of it): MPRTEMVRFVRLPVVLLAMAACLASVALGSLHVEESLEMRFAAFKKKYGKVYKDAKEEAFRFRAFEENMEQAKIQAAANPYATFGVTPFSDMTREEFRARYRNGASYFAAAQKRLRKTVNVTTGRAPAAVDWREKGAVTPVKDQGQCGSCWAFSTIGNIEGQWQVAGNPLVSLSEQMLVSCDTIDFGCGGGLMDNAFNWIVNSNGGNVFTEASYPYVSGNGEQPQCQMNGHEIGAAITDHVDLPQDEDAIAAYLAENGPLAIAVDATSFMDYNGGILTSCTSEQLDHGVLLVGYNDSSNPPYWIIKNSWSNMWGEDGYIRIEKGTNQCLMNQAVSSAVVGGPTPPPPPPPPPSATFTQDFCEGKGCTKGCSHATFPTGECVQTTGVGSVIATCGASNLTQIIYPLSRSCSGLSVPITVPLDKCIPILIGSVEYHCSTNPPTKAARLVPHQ
T2 sequence (P25774 115-331): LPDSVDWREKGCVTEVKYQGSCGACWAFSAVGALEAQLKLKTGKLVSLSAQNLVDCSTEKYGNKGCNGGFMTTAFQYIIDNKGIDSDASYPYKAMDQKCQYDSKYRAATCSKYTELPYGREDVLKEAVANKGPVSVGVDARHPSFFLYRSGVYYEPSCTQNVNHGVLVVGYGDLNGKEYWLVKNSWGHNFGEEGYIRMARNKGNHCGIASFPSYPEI

Compound | inhibition of the proteasome β5-subunit, in words (proteasome β5-subunit) | Ki (rhodesain) [nM] | reactivity with PhEtSH (protonated thiol), in words [1] | reactivity with PhEtSH + Et3N (deprotonated thiol), in words [2] | reactivity with EtONa, in words [3] | also measured
CC(C)C[C@H](NC(=O)[C@H](Cc1ccccc1)NC(=O)c1cnccn1)C(=O)N[C@H]1CN(c2ccccc2)C1=O [compound 72] | None and did not inhibit |  |  |  |  | 
CCOC(=O)/C=C/C(=O)[C@H](CC(C)C)NC(=O)[C@H](Cc1ccccc1)NC(=O)c1cnccn1 [compound 68] | None | 9 ± 1 |  |  |  | activity against CatS, in words (human cathepsin S (CatS)): essentially inactive; kinact (rhodesain; read-out: kinact, Rhodesain): 0.006 ± 0.001 s⁻¹
CC(C)CC(NC(=O)OC(C)(C)C)[13C](=O)c1nc2ccccc2s1 (centres unmarked) [compound 115] |  |  | did indeed react | strong reactivity | strong reactivity | conversion with PhEtSH [1]: 18%; conversion with PhEtSH + Et3N ([2]; DMSO-d6, time not stated): around 30%; maximum conversion with EtONa ([3]; DMSO-d6, maximum reached after 60 min): 37%
CC(C)C[C@H](NC(=O)OC(C)(C)C)C(=O)N[C@H]1CN(c2ccccc2)C1=O [compound 108] |  |  | conversion was not observed | Every warhead except the β-lactam 108 and the nitrile 117 reacted | complete conversion; also recorded: strong reactivity | time to full conversion with EtONa [3]: 60 min
COC(=O)[C@H](C[C@@H]1CCNC1=O)NC(=O)OC(C)(C)C [compound 85] |  |  |  |  |  | inhibition of the proteasome β5-subunit, in words (proteasome β5-subunit; [6]): None
CC(C)C[C@@H](C=C[N+](=O)[O-])NC(=O)[C@H](Cc1ccccc1)NC(=O)c1cnccn1 [compound 59] | None | 2 ± 5 |  |  |  | Ki (human cathepsin S (CatS); Ki, CatS): 619 ± 54 nM
CC(C)C[C@@H](/C=C(\F)S(=O)(=O)c1ccccc1)NC(=O)[C@H](Cc1ccccc1)NC(=O)c1cnccn1 [compound 55] | None | 462 ± 39 |  |  |  | Ki (human cathepsin S (CatS); Ki, CatS): 934 ± 138 nM; Ki (human cathepsin S (CatS); pKi, Cathepsin S inhibition): 1000 nM
CC(C)CC(C#N)NC(=O)C(Cc1ccccc1)NC(=O)c1cnccn1 (centres unmarked) [compound 74] | None and no inhibition and missing inhibition | 560 ± 267 |  |  |  | Ki (human cathepsin S (CatS); Ki, CatS): 238 ± 23 nM
CC(=O)NCC(=O)NC(C(=O)N[C@@H](C)C(=O)N[C@@H](CCCNC(=N)N)C(=O)c1nc2ccccc2s1)[C@H](C)O (some centres unmarked) [compound 103] |  |  |  |  |  | activity against CatS, in words (human cathepsin S (CatS); [6]): not inhibited; also recorded: not active at 20 µM; activity against rhodesain, in words (rhodesain; [6]): not inhibited; also recorded: inactive; Ki ([4]; Table S1; a) calculated from IC50 with Cheng–Prusoff, n.a. = not active (<80% inhibition at 20 µM), read-out: Ki, uPA): 141 ± 27 nM; Ki ([4]; calculated from Ki, –log10(Ki/M), read-out: pKi, uPA inhibition (converted)): 126 nM; activity against uPA, in words [4, 6]: active; also recorded: displayed inhibitory activity; inhibition of the proteasome β5-subunit, in words (proteasome β5-subunit; [6]): not inhibited; activity against M^pro, in words [5]: not inhibited
CCOC(=O)/C=C/C(=O)C(CC(C)C)NC(=O)OC(C)(C)C (centres unmarked) [compound 112] |  |  | did indeed react; also recorded: high reactivity | high reactivity | unspecific conversion | conversion with PhEtSH [1]: 92%; time to full conversion with PhEtSH + Et3N ([2]; DMSO-d6): 5 min; time to full conversion with EtONa [3]: 5 min
CC(C)CC(/C=C(\F)S(=O)(=O)c1ccccc1)NC(=O)OC(C)(C)C (centres unmarked) [compound 110] |  |  | conversion was not observed; also recorded: missing reactivity | high reactivity | No conversion | maximum conversion with PhEtSH + Et3N ([2]; DMSO-d6, after 240 min): 86%
CC(C)CC(NC(=O)C(Cc1ccccc1)NC(=O)c1cnccn1)C(=O)c1nc2ccccc2s1 (centres unmarked) [compound 62] | None and no inhibition |  |  |  |  | 
